Assay results: patent publication US20120232070A1, “Use of Indole Derivatives as Nurr-1 Activators for the Application Thereof as a Medicament for the Treatment of Parkinson's Disease” (Laboratoires Fournier SA, priority 2009, published 2012)

Assays:
[1] = molecular target: hNurr1_RXRαFL (NURR1/RXRα heterodimer) (Homo sapiens, UniProt P19793+P43354); test: Transactivation assay in Cos-7 cells, NURR-1-Gal4 / RXRα, luciferase reporter; format: cell-based; settings: for Emax: COS-7, read-out: hNurr1_RXRαFL Eff (%), efficacy in % relative to the reference XCT0135908 at 2·10^−5 M (=100%); for EC50: Cos-7 cells, overnight incubation; for hNurr1_RXRαFL Eff (%): efficacy in % relative to the reference XCT0135908 at 2·10^−5 M (=100%)
Sequence of hNurr1_RXRαFL (NURR1/RXRα heterodimer) (P19793 whole entry, the tested form may be a part): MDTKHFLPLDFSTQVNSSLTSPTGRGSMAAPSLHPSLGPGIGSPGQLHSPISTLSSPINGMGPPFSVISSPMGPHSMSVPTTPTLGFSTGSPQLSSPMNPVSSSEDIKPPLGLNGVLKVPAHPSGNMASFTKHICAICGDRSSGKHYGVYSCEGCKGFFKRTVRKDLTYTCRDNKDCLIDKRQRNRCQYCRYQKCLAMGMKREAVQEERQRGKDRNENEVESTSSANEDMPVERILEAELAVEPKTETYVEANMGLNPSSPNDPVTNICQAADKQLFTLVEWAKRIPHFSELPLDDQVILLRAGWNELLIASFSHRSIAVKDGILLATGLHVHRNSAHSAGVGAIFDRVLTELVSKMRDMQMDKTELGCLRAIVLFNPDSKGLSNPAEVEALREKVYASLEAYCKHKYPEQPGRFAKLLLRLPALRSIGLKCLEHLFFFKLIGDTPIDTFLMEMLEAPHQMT
Sequence of hNurr1_RXRαFL (NURR1/RXRα heterodimer) (P43354 328-598): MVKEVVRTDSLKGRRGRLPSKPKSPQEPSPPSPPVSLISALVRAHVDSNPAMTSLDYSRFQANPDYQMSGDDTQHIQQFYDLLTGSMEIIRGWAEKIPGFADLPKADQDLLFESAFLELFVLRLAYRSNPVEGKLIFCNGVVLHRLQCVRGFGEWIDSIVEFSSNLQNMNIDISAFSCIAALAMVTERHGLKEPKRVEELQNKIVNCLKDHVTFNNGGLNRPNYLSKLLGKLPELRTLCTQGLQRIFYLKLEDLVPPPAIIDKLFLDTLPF
How it was run: (§1)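 Cos-7 cells co-transfected with human NURR-1-Gal4 chimera, human RXRα or RXRγ, and 5Gal4pGL3-TK-Luc reporter; compounds added at 10^−4 to 3·10^−10 M final, overnight incubation, luciferase read. Induction over each heterodimer's baseline expressed as % of reference RXR agonist XCT0135908 (2·10^−5 M) taken as 100%.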

[2] = molecular target: hNurr1_RXRγFL (NURR1/RXRγ heterodimer) (Homo sapiens, UniProt P43354+P48443); test: Transactivation assay in Cos-7 cells, NURR-1-Gal4 / RXRγ, luciferase reporter; format: cell-based; settings: for Emax: COS-7, read-out: hNurr1_RXRγFL Eff (%), efficacy in % relative to the reference XCT0135908 at 2·10^−5 M (=100%); for EC50: Cos-7 cells, overnight incubation; for hNurr1_RXRγFL Eff (%): efficacy in % relative to the reference XCT0135908 at 2·10^−5 M (=100%)
Sequence of hNurr1_RXRγFL (NURR1/RXRγ heterodimer) (P43354 328-598): as above
Sequence of hNurr1_RXRγFL (NURR1/RXRγ heterodimer) (P48443 whole entry, the tested form may be a part): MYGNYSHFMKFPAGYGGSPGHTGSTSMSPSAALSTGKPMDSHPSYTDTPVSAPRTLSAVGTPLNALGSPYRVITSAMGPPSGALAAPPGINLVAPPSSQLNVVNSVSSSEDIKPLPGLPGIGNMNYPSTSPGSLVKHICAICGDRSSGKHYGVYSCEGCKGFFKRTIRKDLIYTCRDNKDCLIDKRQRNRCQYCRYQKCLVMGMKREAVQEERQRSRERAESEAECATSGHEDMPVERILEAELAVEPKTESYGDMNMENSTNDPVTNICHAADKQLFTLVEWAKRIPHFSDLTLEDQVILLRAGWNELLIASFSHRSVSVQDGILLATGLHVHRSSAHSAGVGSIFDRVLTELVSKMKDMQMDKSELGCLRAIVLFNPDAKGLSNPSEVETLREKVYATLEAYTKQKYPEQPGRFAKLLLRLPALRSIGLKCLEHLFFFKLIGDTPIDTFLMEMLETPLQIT
How it was run: as §1

SMILES	Emax [1] [%]	EC50 [1] [nM]	Emax [2] [%]	EC50 [2] [nM]	melting point [°C]	hNurr1_RXRαFL Eff (%) [1] [%]	hNurr1_RXRγFL Eff (%) [2] [%]
Cc1c(Cc2ccc(C(=O)O)s2)n(S(=O)(=O)c2cccc(C(C)(C)C)c2)c2ccc(C(F)(F)F)cc12 [Example 85, 5-[[1-[[3-(1,1-dimethylethyl)-phenyl]sulfonyl]-3-methyl-5-trifluoromethyl-1H-indol-2-yl]methyl]-thiophene-2-carboxylic acid]	87	53	73	115	171	–	–
CC(C)c1ccc(S(=O)(=O)n2c(Cc3ccc(C(=O)O)c(F)c3)cc3cc(C(F)(F)F)ccc32)cc1 [Example 2, 2-fluoro-4-[[1-[[4-(1-methylethyl)phenyl]sulfonyl]-5-(trifluoromethyl)-1H-indol-2-yl]methyl]benzoic acid]	63	657	43	724	197	–	–
CC(C)(C)c1cccc(S(=O)(=O)n2c(Cc3ccc(C(=O)O)cc3)cc3cc(C(F)(F)F)c(F)cc32)c1 [Example 117, 4-[[1-[[3-(1,1-dimethylethyl)phenyl]sulfonyl]-5-(trifluoro)-6-fluoro-1H-indol-2-yl]methyl]benzoic acid]	84	39	73	91	–	–	–
O=C(O)c1ccc(Cc2cc3cc(C(F)(F)F)ccc3n2S(=O)(=O)c2ccc(F)c(Cl)c2)cc1 [Example 15, 4-[[1-[(3-chloro-4-fluorophenyl)sulfonyl]-5-(trifluoromethyl)-1H-indol-2-yl]methyl]benzoic acid]	66	372	54	746	–	–	–
O=C(O)c1ccc(Cc2cc3cc(Cl)ccc3n2S(=O)(=O)c2cccc(C(F)(F)F)c2)cc1 [Example 28, 4-[[5-chloro-1-[[3-(trifluoromethyl)phenyl]sulfonyl]-1H-indol-2-yl]-methyl]benzoic acid]	78	332	67	443	–	–	–
CC(C)(C)c1cccc(S(=O)(=O)n2c(Cc3ccc(C(=O)O)c(O)c3)cc3cc(C(F)(F)F)ccc32)c1 [Example 56]	82	1160	51	417	129	–	–
CC(C)(C)c1cccc(S(=O)(=O)n2c(Cc3csc(C(=O)O)c3)cc3cc(C(F)(F)F)ccc32)c1 [Example 70, 4-[[1-[[3-(1,1-dimethylethyl)-phenyl]sulfonyl]-5-trifluoromethyl-1H-indol-2-yl]methyl]-thiophene-2-carboxylic acid]	94	5	91	8	–	–	–
O=C(O)c1ccc(Cc2cc3cc(C(F)(F)F)ccc3n2S(=O)(=O)c2cccc(-c3ccc(Cl)cc3)c2)cc1 [Example 146, 4-[[1-[4′-chloro-biphenyl-3-sulfonyl]-5-(trifluoromethyl)-1H-indol-2-yl]methyl]benzoic acid]	43	619	24	1180	–	–	–
Cc1c(Cc2ccc(C(=O)O)cc2)n(S(=O)(=O)c2cccc(C(C)(C)C)c2)c2ccc(C(F)(F)F)cc12 [Example 189, 4-[[1-[[3-(1,1-dimethylethyl)phenyl]sulfonyl]-3-methyl-5-(trifluoromethyl)-1H-indol-2-yl]methyl]-benzoic acid]	83	120	90	263	–	–	–
CC(C)(C)c1cccc(S(=O)(=O)n2c(Cc3ccc(-c4nn[nH]n4)cc3)cc3cc(C(F)(F)F)ccc32)c1 [Example 221, 4-[1-[3-(1,1-dimethylethyl)phenyl]sulfonyl]-5-(trifluoromethyl)-1H-indol-2H-tetrazol-5-yl-benzyl]	66	191	57	162	–	–	–
O=C(O)c1ccc(Cc2cc3cc(C(F)(F)F)ccc3n2S(=O)(=O)c2cc3ccccc3o2)cc1 [Example 122, 4-[[1-[benzofuran-2-sulfonyl]-5-(trifluoromethyl)-1H-indol-2-yl]methyl]benzoic acid]	62	353	54	680	–	–	–
CC(C)(C)c1cccc(S(=O)(=O)n2c(Cc3ccc(S(N)(=O)=O)cc3)cc3cc(C(F)(F)F)ccc32)c1 [Example 198, 4-[[1-[[3-(1,1-dimethylethyl)-phenyl]sulfonyl]-5-trifluoromethyl-1H-indol-2-yl]methyl]-benzenesulfonamide]	84	7940	86	> 10000	–	–	–
CC1(C)CCc2ccc(S(=O)(=O)n3c(Cc4ccc(C(=O)O)cc4)cc4cc(Cl)ccc43)cc2O1 [Example 173, 4-[[5-chloro-1-[(3,4-dihydro-2,2-dimethyl-2H-1-benzopyran-7-yl)sulfonyl]-1H-indol-2-yl]methyl]-benzoic acid]	78	145	73	498	–	–	–
O=C(O)c1ccc(Cc2cc3cc(Cl)ccc3n2S(=O)(=O)c2ccc3c(c2)OCO3)cc1 [Example 174, 4-[[1-(1.3-benzodioxol-5-ylsulfonyl)-5-chloro-1H-indol-2-yl]methyl]benzoic acid]	47	593	37	813	–	–	–
O=C(O)c1ccc(Cc2cc3cc(C(F)(F)F)ccc3n2S(=O)(=O)c2ccsc2)cc1 [Example 16, 4-[[1-(3-thienylsulfonyl)-5-(trifluoromethyl)-1H-indol-2-yl]methyl]benzoic acid]	66	617	45	628	–	–	–
CC1(C)CCc2cc(S(=O)(=O)n3c(Cc4ccc(C(=O)O)cc4)cc4cc(C(F)(F)F)ccc43)ccc2O1 [Example 132, 4-[[1-[(3,4-dihydro-2,2-dimethyl-2H-1-benzopyran-6-yl)sulfonyl]-5-(trifluoromethyl)-1H-indol-2-yl]methyl]benzoic acid]	45	221	28	352	–	–	–
COC(=O)c1ccc(Cc2cc3cccc(F)c3n2S(=O)(=O)c2cccc(C(C)(C)C)c2)cc1 [Example 113, 4-[[1-[[3-(1,1-dimethylethyl)phenyl]sulfonyl]-7-fluoro-1H-indol-2-yl]methyl]benzoic acid, methyl ester]	103	> 10000	97	1860	–	–	–
O=C(O)c1ccc(Cc2cc3cc(Cl)ccc3n2S(=O)(=O)c2ccc(-c3cccc(F)c3)cc2)cc1 [Example 172, 4-[[1-[3′-fluoro-biphenyl-4-sulfonyl]-5-(chloro)-1H-indol-2-yl]methyl]benzoic acid]	82	117	47	567	–	–	–
O=C(O)c1ccc(Cc2cc3cc(C(F)(F)F)ccc3n2S(=O)(=O)c2ccc(OC(F)F)c(Cl)c2)cc1 [Example 124, 4-[[1-[3-chloro-4-difluoromethoxy-phenylsulfonyl]-5-(trifluoromethyl)-1H-indol-2-yl]methyl]benzoic acid]	59	349	44	697	–	–	–
COc1ccc(S(=O)(=O)n2c(Cc3ccc(C(=O)O)cc3)cc3cc(Cl)ccc32)cc1 [Example 165, 4-[[1-[4-methoxy-phenylsulfonyl]-5-(chloro)-1H-indol-2-yl]methyl]benzoic acid]	51	1140	37	2930	–	–	–
O=C(O)c1ccc(Cc2cc3cc(C(F)(F)F)ccc3n2S(=O)(=O)c2ccc3c(c2)OCCO3)cc1 [Example 22, 4-[[1-[(2,3-dihydro-1,4-benzodioxin-6-yl)sulfonyl]-5-(trifluoromethyl)-1H-indol-2-yl]methyl]benzoic acid]	45	207	43	346	–	–	–
CC(C)(C)c1cccc(S(=O)(=O)n2c(Cc3ccc(C(=O)NS(=O)(=O)c4ccccc4)cc3)cc3cc(C(F)(F)F)ccc32)c1 [Example 229, N-[4-[[1-[[3-(1,1-dimethylethyl)phenyl]sulfonyl]-5-(trifluoromethyl)-1H-indol-2-yl]methyl]benzoyl]-benzenesulfonamide]	60	157	70	303	–	–	–
O=C(O)c1ccc(Cc2cc3cc(C(F)(F)F)ccc3n2S(=O)(=O)c2ccc(OC(F)(F)F)cc2)cc1 [Example 142, 4-[[1-[4-trifluoromethoxy-phenylsulfonyl]-5-(trifluoromethyl)-1H-indol-2-yl]methyl]benzoic acid]	38	459	19	816	–	–	–
CC(C)c1cccc(S(=O)(=O)n2c(Cc3ccc(C(=O)O)cc3)cc3cc(N4CCCC4)ccc32)c1 [Example 116, 4-[[1-[[3-(1-methylethyl)phenyl]sulfonyl]-5-(pyrrolidin)-1H-indol-2-yl]methyl]benzoic acid]	–	871	–	1440	–	74	50
CC1(C)COc2ccc(S(=O)(=O)n3c(Cc4ccc(C(=O)O)cc4)cc4cc(Cl)ccc43)cc21 [Example 183]	–	47	–	95	–	80	91
